# B1: AtSUC6Col-0 (Arabidopsis thaliana) (protein)
# chain: MSDLQANKDAAAVNRQSSSSSADLNGPSPMRKMISVASIAAGIQFGWALQLSLLTPYVQLLGVPHKWSSFIWLCGPVSGLLVQPSVGYFSDRCKSRFGRRRPFIAMGALLVAVAVVLIGYAADFGHSMGDKVDEPVKMRAVVIFALGFWILDVANNTLQGPCRAFLGDLAAGDAKKTRTANAFFSFFMAVGNVLGYAAGSYTNLYKIFPFTMTKACDIYCANLKSCFFLSITLLLVVTIIALWYVEDKQWSPKADSDNEKTPFFGEIFGAFKVMKRPMWMLLIVTALNWIAWFPFLLYDTDWMGREVYGGDSKGDDKMKKLYNQGIHVGGLGLMLNSIVLGFMSLGIEGISRKMGGAKRLWGAVNIILAVCLAMTVLVTKKAEEHRRIAGPMALPTDGIRAGALTLFALLGIPLAITFSIPFALASIISSSSGAGQGLSLGVLNMTIVIPQMVVSFGVGPIDALFGGGNLPGFVVGAIAAAISSVVAFSVLP
# notes: full-length CDS from silique cDNA; untagged in yeast CSY4000 (strain TRY1039); GFP fusion in protoplasts
# Key:
# AtSUC6Col-0 [1] = biological target: T1, AtSUC6Col-0 (Arabidopsis thaliana, UniProt Q6A329); assay: competition of […]-sucrose uptake in yeast; esculin uptake into protoplasts; assay type: cell-based; conditions: pH 5.5; competition with 100 μM 14C-sucrose; value in figure only
# T1 construct: gene SUC6; full-length CDS from silique cDNA; untagged in yeast CSY4000 (strain TRY1039); GFP fusion in protoplasts
# T1 sequence (Q6A329 1-492): B1 chain
# AtSUC2 = biological target: T2, AtSUC2 (Arabidopsis thaliana, UniProt Q39231); assay: esculin fluorescence uptake into GFP-fusion expressing mesophyll protoplasts; assay type: cell-based; conditions: 1 mM esculin, W5 buffer pH 5.6
# T2 construct: gene SUC2; full-length CDS, C-terminal GFP fusion (AtSUC2-GFP), in Arabidopsis mesophyll protoplasts; Col-0 named for the mutant construct
# T2 sequence (Q39231 1-512): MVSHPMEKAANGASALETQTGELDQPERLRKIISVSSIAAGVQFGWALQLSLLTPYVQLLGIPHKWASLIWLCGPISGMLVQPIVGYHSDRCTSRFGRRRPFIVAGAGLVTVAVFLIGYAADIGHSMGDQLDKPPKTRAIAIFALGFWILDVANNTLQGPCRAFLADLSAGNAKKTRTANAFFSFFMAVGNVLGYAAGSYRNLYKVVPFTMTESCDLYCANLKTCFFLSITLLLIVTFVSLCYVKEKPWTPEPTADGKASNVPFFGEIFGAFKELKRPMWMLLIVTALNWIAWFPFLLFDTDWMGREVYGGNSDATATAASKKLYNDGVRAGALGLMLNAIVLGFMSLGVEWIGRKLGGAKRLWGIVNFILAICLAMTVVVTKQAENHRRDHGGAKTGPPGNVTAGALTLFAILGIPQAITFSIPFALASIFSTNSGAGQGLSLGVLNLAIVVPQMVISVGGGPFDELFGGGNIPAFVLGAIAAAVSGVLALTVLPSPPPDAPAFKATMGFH
# AtSUC1 = biological target: T3, AtSUC1 (Arabidopsis thaliana, UniProt Q39232); assay: as above; assay type: cell-based; conditions: 1 mM esculin, W5 buffer pH 5.6
# T3 construct: gene SUC1; full-length CDS, GFP fusion, in Arabidopsis mesophyll protoplasts
# T3 sequence (Q39232 1-513): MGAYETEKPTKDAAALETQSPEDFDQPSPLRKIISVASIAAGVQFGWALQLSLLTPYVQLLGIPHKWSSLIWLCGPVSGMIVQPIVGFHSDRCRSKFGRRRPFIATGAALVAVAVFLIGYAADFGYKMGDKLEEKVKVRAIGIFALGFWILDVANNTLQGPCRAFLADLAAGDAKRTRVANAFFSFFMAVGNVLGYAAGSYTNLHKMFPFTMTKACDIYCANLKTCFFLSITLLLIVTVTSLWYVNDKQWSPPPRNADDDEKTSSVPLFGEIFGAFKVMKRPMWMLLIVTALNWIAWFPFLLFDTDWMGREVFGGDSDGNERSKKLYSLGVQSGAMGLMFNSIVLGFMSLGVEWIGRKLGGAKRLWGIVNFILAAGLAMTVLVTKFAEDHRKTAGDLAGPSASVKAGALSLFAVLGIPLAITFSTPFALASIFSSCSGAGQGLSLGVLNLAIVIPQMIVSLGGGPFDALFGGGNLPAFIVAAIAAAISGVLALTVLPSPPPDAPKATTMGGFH
# AtSUC9 = biological target: T4, AtSUC9 (Arabidopsis thaliana, UniProt Q9FG00); assay: as above; assay type: cell-based; conditions: 1 mM esculin, W5 buffer pH 5.6
# T4 construct: gene SUC9; full-length CDS, GFP-AtSUC9 fusion, in Arabidopsis mesophyll protoplasts
# T4 sequence (Q9FG00 1-491): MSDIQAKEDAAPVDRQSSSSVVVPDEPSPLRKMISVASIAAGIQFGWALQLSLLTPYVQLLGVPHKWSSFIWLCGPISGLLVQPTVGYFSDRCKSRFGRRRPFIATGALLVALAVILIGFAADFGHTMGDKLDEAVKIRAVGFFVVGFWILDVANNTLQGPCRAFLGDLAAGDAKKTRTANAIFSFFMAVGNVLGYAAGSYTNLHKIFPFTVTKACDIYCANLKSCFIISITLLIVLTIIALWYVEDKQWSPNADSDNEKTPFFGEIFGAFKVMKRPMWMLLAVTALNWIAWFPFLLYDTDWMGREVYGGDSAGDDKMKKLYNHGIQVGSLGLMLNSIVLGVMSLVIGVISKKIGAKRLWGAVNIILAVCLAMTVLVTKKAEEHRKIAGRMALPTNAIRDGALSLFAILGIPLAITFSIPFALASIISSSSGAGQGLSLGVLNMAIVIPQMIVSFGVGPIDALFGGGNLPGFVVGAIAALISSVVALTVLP
# AtSUC3 = biological target: T5, AtSUC3 (Arabidopsis thaliana, UniProt O80605); assay: as above; assay type: cell-based; conditions: 1 mM esculin, W5 buffer pH 5.6
# T5 construct: gene SUC3; full-length CDS, GFP-AtSUC3 fusion, in Arabidopsis mesophyll protoplasts
# T5 sequence (O80605 1-594): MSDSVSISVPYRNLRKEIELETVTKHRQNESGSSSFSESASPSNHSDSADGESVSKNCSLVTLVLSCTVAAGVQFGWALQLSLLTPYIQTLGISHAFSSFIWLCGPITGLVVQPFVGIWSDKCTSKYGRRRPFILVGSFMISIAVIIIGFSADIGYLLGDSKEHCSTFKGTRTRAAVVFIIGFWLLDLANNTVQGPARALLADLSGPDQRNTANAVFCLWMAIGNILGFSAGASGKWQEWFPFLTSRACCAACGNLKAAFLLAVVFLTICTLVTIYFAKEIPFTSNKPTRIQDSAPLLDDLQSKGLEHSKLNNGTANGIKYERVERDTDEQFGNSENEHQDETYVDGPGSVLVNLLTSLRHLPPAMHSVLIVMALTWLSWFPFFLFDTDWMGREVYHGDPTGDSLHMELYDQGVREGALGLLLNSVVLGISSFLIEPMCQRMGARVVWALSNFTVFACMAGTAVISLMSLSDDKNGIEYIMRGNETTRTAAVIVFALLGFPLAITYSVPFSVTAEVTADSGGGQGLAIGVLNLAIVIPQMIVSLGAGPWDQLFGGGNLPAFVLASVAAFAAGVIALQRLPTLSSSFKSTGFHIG
# AtSUC8 = biological target: T6, AtSUC8 (Arabidopsis thaliana, UniProt Q9ZVK6); assay: as above; assay type: cell-based; conditions: 1 mM esculin, W5 buffer pH 5.6
# T6 construct: gene SUC8; full-length CDS, GFP fusion, in Arabidopsis mesophyll protoplasts
# T6 sequence (Q9ZVK6 1-492): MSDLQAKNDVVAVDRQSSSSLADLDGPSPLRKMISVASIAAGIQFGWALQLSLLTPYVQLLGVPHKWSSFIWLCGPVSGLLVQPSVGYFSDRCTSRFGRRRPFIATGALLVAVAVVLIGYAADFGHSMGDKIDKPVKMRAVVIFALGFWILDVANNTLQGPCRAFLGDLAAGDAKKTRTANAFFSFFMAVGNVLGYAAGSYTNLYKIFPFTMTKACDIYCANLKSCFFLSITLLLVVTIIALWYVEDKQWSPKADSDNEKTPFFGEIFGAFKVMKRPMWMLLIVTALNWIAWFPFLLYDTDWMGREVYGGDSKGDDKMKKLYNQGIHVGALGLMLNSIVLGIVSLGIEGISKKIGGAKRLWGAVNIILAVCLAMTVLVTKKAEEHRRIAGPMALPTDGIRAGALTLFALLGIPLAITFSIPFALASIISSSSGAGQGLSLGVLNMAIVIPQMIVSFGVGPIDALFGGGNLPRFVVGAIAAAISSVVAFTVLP
# AtSUC5 = biological target: T7, AtSUC5 (Arabidopsis thaliana, UniProt Q9C8X2); assay: as above; assay type: cell-based; conditions: 1 mM esculin, W5 buffer pH 5.6
# T7 construct: gene SUC5; full-length CDS, GFP fusion, in Arabidopsis mesophyll protoplasts; Col-0 named for the mutant construct
# T7 sequence (Q9C8X2 1-512): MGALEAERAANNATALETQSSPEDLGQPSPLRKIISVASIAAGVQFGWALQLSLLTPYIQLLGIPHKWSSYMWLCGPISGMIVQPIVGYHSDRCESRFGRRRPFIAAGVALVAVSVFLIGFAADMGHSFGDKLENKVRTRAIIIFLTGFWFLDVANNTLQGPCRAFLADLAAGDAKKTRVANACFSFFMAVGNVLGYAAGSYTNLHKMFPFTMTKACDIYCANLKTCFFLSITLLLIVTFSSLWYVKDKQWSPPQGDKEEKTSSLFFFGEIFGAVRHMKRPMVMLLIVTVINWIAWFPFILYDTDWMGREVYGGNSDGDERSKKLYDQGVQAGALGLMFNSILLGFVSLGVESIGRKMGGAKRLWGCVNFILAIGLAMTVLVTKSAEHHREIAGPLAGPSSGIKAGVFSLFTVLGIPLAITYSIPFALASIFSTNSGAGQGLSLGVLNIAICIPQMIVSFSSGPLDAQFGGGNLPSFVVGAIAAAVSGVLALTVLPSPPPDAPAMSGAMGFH
# AtSUC6Col-0 [2] = biological target: T1, AtSUC6Col-0; assay: competition of […]-sucrose uptake in yeast; assay type: cell-based; conditions: 100 μM 14C-sucrose, maltose in 10-fold excess (1 mM), pH 5.5
# AtSUC6Col-0 [3] = biological target: T1, AtSUC6Col-0; assay: competition of […]-sucrose uptake in yeast; assay type: cell-based; conditions: 10-fold excess, pH 5.5, weak, value in figure only
# [4] = substrate: OC[C@H]1O[C@@](CO)(O[C@H]2O[C@H](CO)[C@@H](O)[C@H](O)[C@H]2O)[C@@H](O)[C@@H]1O; assay: cells, lysate or membranes; assay type: cell-based, Arabidopsis thaliana; conditions: external pH 5.5, H+ symport, labelled compound
molecule,measurement,setting,value
O=c1ccc2cc(O[C@@H]3O[C@H](CO)[C@@H](O)[C@H](O)[C@H]3O)c(O)cc2o1 [esculin],competition of 14C-sucrose uptake in yeast; esculin uptake into protoplasts,AtSUC6Col-0 [1],addition of esculin greatly interfered with sucrose uptake (Figure 4E)
same,esculin fluorescence uptake into GFP-fusion expressing mesophyll protoplasts,AtSUC2,all protoplasts labeled by AtSUC2-GFP had taken up esculin
same,esculin fluorescence uptake into GFP-fusion expressing mesophyll protoplasts,AtSUC1,"AtSUC1, AtSUC5, AtSUC6Col-0, AtSUC8, or AtSUC9 enabled the cells to accumulate esculin"
same,esculin fluorescence uptake into GFP-fusion expressing mesophyll protoplasts,AtSUC9,"AtSUC1, AtSUC5, AtSUC6Col-0, AtSUC8, or AtSUC9 enabled the cells to accumulate esculin"
same,esculin fluorescence uptake into GFP-fusion expressing mesophyll protoplasts,AtSUC3,Protoplasts with GFP-AtSUC3 were also able to accumulate esculin
same,esculin fluorescence uptake into GFP-fusion expressing mesophyll protoplasts,AtSUC8,"AtSUC1, AtSUC5, AtSUC6Col-0, AtSUC8, or AtSUC9 enabled the cells to accumulate esculin"
same,esculin fluorescence uptake into GFP-fusion expressing mesophyll protoplasts,AtSUC5,"AtSUC1, AtSUC5, AtSUC6Col-0, AtSUC8, or AtSUC9 enabled the cells to accumulate esculin"
OC[C@H]1O[C@H](O[C@H]2[C@H](O)[C@@H](O)C(O)O[C@@H]2CO)[C@H](O)[C@@H](O)[C@@H]1O (stereo partly shown) [maltose],% residual 14C-sucrose uptake in 10-fold excess,AtSUC6Col-0 [2],32%
OC[C@H]1O[C@H](OC[C@H]2O[C@H](O[C@]3(CO)O[C@H](CO)[C@@H](O)[C@@H]3O)[C@H](O)[C@@H](O)[C@@H]2O)[C@H](O)[C@@H](O)[C@H]1O [raffinose],competition of 14C-sucrose uptake in yeast,AtSUC6Col-0 [3],The trisaccharide raffinose slightly interfered with sucrose uptake
B1,Km,[4],81.2 ± 2.7 µM
